According to patent publication US7592357B2, “Compounds” (SmithKline Beecham Corporation, priority 2004, dated 2009):

Target: T1, human recombinant ROCK1 kinase domain (amino acid 2-543) (Homo sapiens, UniProt Q13464)
T1 construct: ROCK1 kinase domain (amino acid 2-543); His-tag; made in house; host or cells: Sf9 cells
Assay: ROCK Kinase Assay
Type: biochemical
Conditions: 1 nM hROCK1, 1 uM ATP, SPA; results recorded as pIC50; range tested 50 uM to 0.8 nM or 10 uM to 0.8 nM
Procedure: ROCK inhibitor activity was determined using human recombinant ROCK1 kinase domain (amino acid 2-543) expressed in Sf9 cells (see WO9967283). The enzyme was purified using His-tag NTA column and Source15 HPLC chromatography. The assay of Rock-1 activity involved incubation with peptide substrate and ATP^33, the subsequent incorporation of P^33 into the peptide was quantified by Scintillation Proximity Assay (SPA—Amersham Pharmacia).
For IC50 determination, test compounds were typically dissolved at 10 mM in 100% DMSO, with subsequent serial dilution in 100% DMSO. Compounds were typically assayed over an eleven point dilution range with a concentration in the assay of 50 uM to 0.8 nM, in 3-fold dilutions. IC50) values were calculated by bespoke curve fitting software and then converted to pIC50. In some cases, compounds were assayed over an eleven point dilution range with a concentration in the assay of 10 uM to 0.8 nM, in 3-fold dilutions. […]
Assays were performed in opaque, white walled, 384 well plates, in a total assay volume of 20 ul. […] P^33 incorporation was quantified by scintillation counting in a Packard TopCount. When the reaction was terminated by addition of a 10 ul solution, P33 incorporation was quantified by luminescence detection using a PerkinElmer Viewlux ultraHTS microplate imager.

T1 sequence (Q13464 2-543): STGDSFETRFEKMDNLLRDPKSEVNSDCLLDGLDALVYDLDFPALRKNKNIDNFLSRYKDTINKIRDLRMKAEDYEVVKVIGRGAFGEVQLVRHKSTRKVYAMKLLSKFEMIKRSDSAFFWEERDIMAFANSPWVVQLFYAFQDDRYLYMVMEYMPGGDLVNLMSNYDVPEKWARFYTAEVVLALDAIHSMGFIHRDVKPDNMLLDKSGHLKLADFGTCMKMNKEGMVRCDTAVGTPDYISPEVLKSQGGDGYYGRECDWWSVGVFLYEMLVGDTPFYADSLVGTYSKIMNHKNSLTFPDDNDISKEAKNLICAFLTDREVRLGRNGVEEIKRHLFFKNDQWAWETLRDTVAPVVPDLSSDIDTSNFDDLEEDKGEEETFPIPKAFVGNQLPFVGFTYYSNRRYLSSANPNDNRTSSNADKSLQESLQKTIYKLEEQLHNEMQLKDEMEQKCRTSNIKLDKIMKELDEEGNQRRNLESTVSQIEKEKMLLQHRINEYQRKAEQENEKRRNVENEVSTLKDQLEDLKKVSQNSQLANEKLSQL

For `COc1cccc(CN2C(=O)CC(c3ccc(C(F)(F)F)cc3)C(C(=O)Nc3cc4cn[nH]c4cc3F)=C2C)c1` (stereo not shown) [Example 104, N-(6-Fluoro-1H-indazol-5-yl)-2-methyl-1-{[3-(methyloxy)phenyl]methyl}-6-oxo-4-[4-(trifluoromethyl)phenyl]-1,4,5,6-tetrahydro-3-pyridinecarboxamide], the “activity in the ROCK kinase assay” value was “not active”.
